Patent US20130030001A1 (priority 2008, published 2013)
Counter-ions that a name gives are not always drawn.

target: T1, human muscarinic acetylcholine M3 receptor (Homo sapiens, UniProt P20309); experiment: biochemical; format: binding; details: M3 binding IC50
T1 construct: expressed in transfected cells; host or cells: CHO-K1 (Chinese Hamster Ovary) cell membranes
T1 sequence (P20309 whole entry): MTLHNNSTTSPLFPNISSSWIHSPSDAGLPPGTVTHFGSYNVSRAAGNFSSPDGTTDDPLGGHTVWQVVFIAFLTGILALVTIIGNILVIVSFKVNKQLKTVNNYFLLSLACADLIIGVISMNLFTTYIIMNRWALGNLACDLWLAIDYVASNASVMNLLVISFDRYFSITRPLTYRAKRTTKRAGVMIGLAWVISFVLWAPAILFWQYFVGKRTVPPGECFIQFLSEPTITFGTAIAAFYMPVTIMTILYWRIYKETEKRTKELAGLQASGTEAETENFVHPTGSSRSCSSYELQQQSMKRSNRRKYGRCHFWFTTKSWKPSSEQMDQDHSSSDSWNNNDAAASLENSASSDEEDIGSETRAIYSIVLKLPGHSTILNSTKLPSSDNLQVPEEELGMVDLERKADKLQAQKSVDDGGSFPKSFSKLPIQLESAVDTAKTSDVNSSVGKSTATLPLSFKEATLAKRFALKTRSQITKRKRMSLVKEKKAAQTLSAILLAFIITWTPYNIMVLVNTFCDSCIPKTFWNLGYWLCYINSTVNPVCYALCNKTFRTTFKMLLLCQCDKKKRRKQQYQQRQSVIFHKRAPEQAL

Compound | IC50
O=C(NCCC[N+]12CCC(CC1)[C@@H](OC(=O)C1(c3ccccc3)CCCCCC1)C2)c1ccccn1 [Example 57, (R)-3-(1-Phenyl-cycloheptanecarbonyloxy)-1-{3-[(pyridine-2-carbonyl)-amino]-propyl}-1-azonia-bicyclo[2.2.2]octane bromide] | 2 to 10 nM
O=C(C[N+]12CCC(CC1)[C@@H](OC(=O)C1(c3ccccc3)CCCCCC1)C2)NCCOc1cccc(F)c1 [Example 34, (R)-1-{[2-(3-Fluoro-phenoxy)-ethylcarbamoyl]-methyl}-3-(1-phenyl-cycloheptanecarbonyloxy)-1-azonia-bicyclo[2.2.2]octane bromide] | 2 to 10 nM
Cc1cc(NC(=O)C[N+]23CCC(CC2)[C@@H](OC(=O)C2(c4cccs4)CCCCCC2)C3)no1 [Example 6, (R)-1-[(5-Methyl-isoxazol-3-ylcarbamoyl)-methyl]-3-(1-thiophen-2-yl-cycloheptanecarbonyloxy)-1-azonia-bicyclo[2.2.2]octane bromide] | < 2 nM
O=C(C[N+]12CCC(CC1)[C@@H](OC(=O)C1(c3ccccc3)CCCCCC1)C2)Nc1ccccc1F [Example 23, (R)-1-[(2-Fluoro-phenylcarbamoyl)-methyl]-3-(1-phenyl-cycloheptanecarbonyloxy)-1-azonia-bicyclo[2.2.2]octane bromide] | < 2 nM
O=C(C[N+]12CCC(CC1)[C@@H](OC(=O)C1(c3ccccc3)CCCCCC1)C2)Nc1cccc(C(F)(F)F)n1 [Example 43, (R)-3-(1-Phenyl-cycloheptanecarbonyloxy)-1-[(6-trifluoromethyl-pyridin-2-ylcarbamoyl)-methyl]-1-azonia-bicyclo[2.2.2]octane chloride] | 2 to 10 nM
O=C(O[C@@H]1C[N+]2(CCCOc3ccccc3)CCC1CC2)C1(c2ccccc2)CCCCCC1 [Example 33, (S)-1-(3-Phenoxy-propyl)-3-(1-phenyl-cycloheptanecarbonyloxy)-1-azonia-bicyclo[2.2.2]octane formate] | 2 to 10 nM
O=C(C[N+]12CCC(CC1)[C@@H](OC(=O)C1(c3ccccc3)CCCCCC1)C2)Nc1ccnnc1 [Example 27, (R)-3-(1-phenyl-cycloheptanecarbonyloxy)-1-(pyridazin-4-ylcarbamoylmethyl)-1-azonia-bicyclo[2.2.2]octane formate] | 2 to 10 nM
Cc1cnc(NC(=O)C[N+]23CCC(CC2)[C@@H](OC(=O)C2(c4cccs4)CCCCCC2)C3)cn1 [Example 9, (R)-1-[(5-Methyl-pyrazin-2-ylcarbamoyl)-methyl]-3-(1-thiophen-2-yl-cycloheptanecarbonyloxy)-1-azonia-bicyclo[2.2.2]octane bromide] | < 2 nM
N#Cc1ccc(OCCC[N+]23CCC(CC2)[C@@H](OC(=O)C2(c4ccccc4)CCCCCC2)C3)cc1 [Example 40, (R)-1-[3-(4-Cyano-phenoxy)-propyl]-3-(1-phenyl-cycloheptanecarbonyloxy)-1-azonia-bicyclo[2.2.2]octane bromide] | < 2 nM
O=C(C[N+]12CCC(CC1)[C@@H](OC(=O)C1(c3ccccc3)CCCCCC1)C2)Nc1cc(F)cc(F)c1 [Example 35, (R)-1-[(3,5-Difluoro-phenylcarbamoyl)-methyl]-3-(1-phenyl-cycloheptanecarbonyloxy)-1-azonia-bicyclo[2.2.2]octane bromide] | 2 to 10 nM
O=C(NCC[N+]12CCC(CC1)[C@@H](OC(=O)C1(c3ccccc3)CCCCCC1)C2)c1cnccn1 [Example 55, (R)-3-(1-Phenyl-cycloheptanecarbonyloxy)-1-{2-[(pyrazine-2-carbonyl)-amino]-ethyl}-1-azonia-bicyclo[2.2.2]octane bromide] | 2 to 10 nM
O=C(O[C@H]1C[N+]2(CCc3ccc4c(c3)CCO4)CCC1CC2)C1(c2ccccc2)CCCCCC1 [Example 25, (R)-1-[2-(2,3-Dihydro-benzofuran-5-yl)-ethyl]-3-(1-phenyl-cycloheptanecarbonyloxy)-1-azonia-bicyclo[2.2.2]octane formate] | < 2 nM
O=C(NCC[N+]12CCC(CC1)[C@@H](OC(=O)C1(c3ccccc3)CCCCCC1)C2)c1ccccn1 [Example 60, (R)-3-(1-Phenyl-cycloheptanecarbonyloxy)-1-{2-[(pyridine-2-carbonyl)-amino]-ethyl}-1-azonia-bicyclo[2.2.2]octane bromide] | < 2 nM
O=C(C[N+]12CCC(CC1)[C@@H](OC(=O)C1(c3ccccc3)CCCCCC1)C2)Nc1ccncc1 [Example 16, (R)-3-(1-Phenyl-cycloheptanecarbonyloxy)-1-(pyridin-4-ylcarbamoylmethyl)-1-azonia-bicyclo[2.2.2]octane chloride] | < 2 nM
O=C(C[N+]12CCC(CC1)[C@@H](OC(=O)C1(c3ccccc3)CCCCCC1)C2)Nc1cncnc1 [Example 52, (R)-3-(1-Phenyl-cycloheptanecarbonyloxy)-1-(pyrimidin-5-ylcarbamoylmethyl)-1-azonia-bicyclo[2.2.2]octane chloride] | < 2 nM
O=C(C[N+]12CCC(CC1)[C@@H](OC(=O)C1(c3ccccc3)CCCCCC1)C2)Nc1ccc(Cl)cn1 [Example 45, (R)-1-[(5-Chloro-pyridin-2-ylcarbamoyl)-methyl]-3-(1-phenyl-cycloheptanecarbonyloxy)-1-azonia-bicyclo[2.2.2]octane chloride] | < 2 nM

Compound | IC50
Cc1ccnc(NC(=O)C[N+]23CCC(CC2)[C@@H](OC(=O)C2(c4ccccc4)CCCCCC2)C3)c1 [Example 44, (R)-1-[(4-Methyl-pyridin-2-ylcarbamoyl)-methyl]-3-(1-phenyl-cycloheptanecarbonyloxy)-1-azonia-bicyclo[2.2.2]octane chloride] | 2 to 10 nM
CN(C(=O)C[N+]12CCC(CC1)[C@@H](OC(=O)C1(c3ccccc3)CCCCCC1)C2)c1ccccc1 [Example 39, (R)-1-[(Methyl-phenyl-carbamoyl)-methyl]-3-(1-phenyl-cycloheptanecarbonyloxy)-1-azonia-bicyclo[2.2.2]octane formate] | 2 to 10 nM
O=C(O[C@H]1C[N+]2(CCOc3cccnc3)CCC1CC2)C1(c2ccccc2)CCCCCC1 [Example 29, (R)-3-(1-Phenyl-cycloheptanecarbonyloxy)-1-[2-(pyridin-3-yloxy)-ethyl]-1-azonia-bicyclo[2.2.2]octane formate] | 2 to 10 nM
Cc1ccc(NC(=O)C[N+]23CCC(CC2)[C@@H](OC(=O)C2(c4ccccc4)CCCCCC2)C3)cc1 [Example 46, (R)-3-(1-Phenyl-cycloheptanecarbonyloxy)-1-(p-tolylcarbamoyl-methyl)-1-azonia-bicyclo[2.2.2]octane bromide] | 2 to 10 nM
Cc1cc(NC(=O)C[N+]23CCC(CC2)[C@@H](OC(=O)C2(c4ccccc4)CCCCCC2)C3)ncn1 [Example 59, (R)-1-[(6-Methyl-pyrimidin-4-ylcarbamoyl)-methyl]-3-(1-phenyl-cycloheptanecarbonyloxy)-1-azonia-bicyclo[2.2.2]octane chloride] | 2 to 10 nM
O=C(C[N+]12CCC(CC1)[C@@H](OC(=O)C1(c3ccccc3)CCCCCC1)C2)Nc1c(F)cccc1F [Example 38, (R)-1-[(2,6-Difluoro-phenylcarbamoyl)-methyl]-3-(1-phenyl-cycloheptanecarbonyloxy)-1-azonia-bicyclo[2.2.2]octane bromide] | < 2 nM
Cc1cccc(NC(=O)C[N+]23CCC(CC2)[C@@H](OC(=O)C2(c4ccccc4)CCCCCC2)C3)c1 [Example 47, (R)-3-(1-Phenyl-cycloheptanecarbonyloxy)-1-(m-tolylcarbamoyl-methyl)-1-azonia-bicyclo[2.2.2]octane bromide] | 2 to 10 nM
O=C(C[N+]12CCC(CC1)[C@@H](OC(=O)C1(c3cccs3)CCCCCC1)C2)Nc1cccc(F)c1 [Example 8, (R)-1-[(3-Fluoro-phenylcarbamoyl)-methyl]-3-(1-thiophen-2-yl-cycloheptanecarbonyloxy)-1-azonia-bicyclo[2.2.2]octane bromide] | < 2 nM
O=C(C[N+]12CCC(CC1)[C@@H](OC(=O)C1(c3ccccc3)CCCCCC1)C2)Nc1cc(F)ccc1F [Example 41, (R)-1-[(2,5-Difluoro-phenylcarbamoyl)-methyl]-3-(1-phenyl-cycloheptanecarbonyloxy)-1-azonia-bicyclo[2.2.2]octane bromide] | 2 to 10 nM
Cc1cccc(NC(=O)C[N+]23CCC(CC2)[C@@H](OC(=O)C2(c4ccccc4)CCCCCC2)C3)n1 [Example 30, (R)-1-[(6-Methyl-pyridin-2-ylcarbamoyl)-methyl]-3-(1-phenyl-cycloheptanecarbonyloxy)-1-azonia-bicyclo[2.2.2]octane chloride] | < 2 nM
O=C(O[C@H]1C[N+]2(CCc3cnccn3)CCC1CC2)C1(c2ccccc2)CCCCCC1 [Example 32, (R)-3-(1-Phenyl-cycloheptanecarbonyloxy)-1-(2-pyrazin-2-yl-ethyl)-1-azonia-bicyclo[2.2.2]octane bromide] | 2 to 10 nM
Cc1cc(NC(=O)C[N+]23CCC(CC2)[C@@H](OC(=O)C2(c4cccs4)CCCCCC2)C3)on1 [Example 7, (R)-1-[(3-Methyl-isoxazol-5-ylcarbamoyl)-methyl]-3-(1-thiophen-2-yl-cycloheptanecarbonyloxy)-1-azonia-bicyclo[2.2.2]octane bromide] | 2 to 10 nM
O=C(C[N+]12CCC(CC1)[C@@H](OC(=O)C1(c3ccccc3)CCCCCC1)C2)Nc1ncccn1 [Example 50, (R)-3-(1-Phenyl-cycloheptanecarbonyloxy)-1-(pyrimidin-2-ylcarbamoylmethyl)-1-azonia-bicyclo[2.2.2]octane chloride] | < 2 nM
O=C(C[N+]12CCC(CC1)[C@@H](OC(=O)C1(c3cccs3)CCCCCC1)C2)Nc1cccnn1 [Example 5, (R)-1-(Pyridazin-3-ylcarbamoylmethyl)-3-(1-thiophen-2-yl-cycloheptanecarbonyloxy)-1-azonia-bicyclo[2.2.2]octane bromide] | < 2 nM
Cc1ccc(NC(=O)C[N+]23CCC(CC2)[C@@H](OC(=O)C2(c4ccccc4)CCCCCC2)C3)nc1 [Example 18, (R)-1-[(5-Methyl-pyridin-2-ylcarbamoyl)-methyl]-3-(1-phenyl-cycloheptanecarbonyloxy)-1-azonia-bicyclo[2.2.2]octane chloride] | < 2 nM

same assay, conditions: pIC50

Compound | IC50
O=C(C[N+]12CCC(CC1)[C@@H](OC(=O)C1(c3cccs3)CCCCCC1)C2)Nc1cccnn1 [Example 5, (R)-1-(Pyridazin-3-ylcarbamoylmethyl)-3-(1-thiophen-2-yl-cycloheptanecarbonyloxy)-1-azonia-bicyclo[2.2.2]octane bromide] | 0.398 nM
